In this assay the test system is G. duodenalis BRIS/91/HEPU/1279. The assay can be described thus: Primary Giardia screen at 10 µM (live-cell imaging, automated counting). The assay is classed as cell-based, Giardia duodenalis. The settings on record: for % Inhibition n=1 48h / % Inhibition n=1 24h: first singlicate assay; for % Inhibition n=2 24h / % Inhibition n=2 48h: re-assessment. An outline of the steps: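 Percent growth versus 0.2% DMSO vehicle, background-corrected with media-only wells, is reported at 24 and 48 h from automated live-cell counts. Testing used 10 μM final in a 3% O2 atmosphere, with plate quality checked by Z' factor.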

Turning to `COc1cc(OC)c(NC(=O)N2CCN(c3nc4ccccc4n3C)CC2)cc1Cl` [SN00794807], the “% Inhibition n=1 48h” value is on record as 0.0%.

In the case of `O=C(c1csc(-c2ccncc2)n1)N1CCN(c2ccccc2)CC1` [SN00794830], the “% Inhibition n=1 48h” value amounted to 15.8%.

As to `O=S(=O)(Cc1ccc(Cl)cc1)c1nc2ccccc2nc1N1CCC2(CC1)OCCO2` [SN00794883], the “% Inhibition n=1 48h” value is listed as 15.2%.

On to `Cc1ccc2c(c1)n(Cc1ccc(Cl)cc1)c(=O)c1nc(C(=O)NCCc3cccs3)nn12` [SN00794982], for which the “% Inhibition n=1 48h” value came to 29.9%.

Turning to `Cc1ccc(NC(=O)c2nc3c(=O)n(Cc4ccccc4C)c4cc(C)ccc4n3n2)cc1` [SN00794983], the “% Inhibition n=1 48h” value is 3.1%.

With `Cc1ccnc(N2CCCC(C(=O)NC3CCCC3)C2)n1` (centres unmarked) [SN00795015], the “% Inhibition n=1 48h” value is listed as 10.9%.

Turning to `Cc1ccnc(N2CCCC(C(=O)N3CC=C(c4ccccc4)CC3)C2)n1` (centres unmarked) [SN00795039], the “Average % Inhibition 24h” value amounted to 18.0%, the “% Inhibition n=1 24h” value turned out to be 29.9%, the “% Inhibition n=2 24h” value is on record as 6.1% and the “Average % Inhibition 48h” value was found to be 46.1%. Besides, the “% Inhibition n=1 48h” value is recorded as 57.6% and the “% Inhibition n=2 48h” value amounted to 34.6%.

Consider `Cc1ccc(C2c3cccn3-c3ccccc3CN2C(=O)c2cccnc2)cc1` (centres unmarked) [SN00795042], for which the “% Inhibition n=1 48h” value came to 0.0%.

Take `Cc1ccc(-c2cc3nc(C)cc(N4CCC(C(=O)NCCCN5CCCC5)CC4)n3n2)cc1` [SN00795048]: the “% Inhibition n=1 48h” value is on record as 16.1%.

Regarding `Cc1cc(N2CCC(C(=O)N3CCN(c4ccc(F)cc4)CC3)CC2)n2nc(-c3ccccc3)cc2n1` [SN00795072], the “% Inhibition n=1 48h” value was found to be 0.0%.

As for `O=S(=O)(c1ccc(-c2cnc(C3CCC3)o2)s1)N1CCC2(CC1)OCCO2` [SN00795093], the “% Inhibition n=1 48h” value came to 7.0%.

As to `O=S(=O)(NCCC1=CCCCC1)c1ccc(-c2cnc(C3CCCC3)o2)s1` [SN00795100], the “% Inhibition n=1 48h” value is 27.9%.

For `CCOc1ccc(N/C(=N\S(C)(=O)=O)Nc2cc(C)c(Cl)cc2OC)cc1` [SN00795110], the “% Inhibition n=1 48h” value turned out to be 18.1%.

`COc1ccc(CC(=O)N2CCN(Cc3nc4cc(C(=O)N5CCCC5)ccc4n3C)CC2)cc1` [SN00795130]: the “% Inhibition n=1 48h” value amounted to 13.8%.

Regarding `CCCNS(=O)(=O)c1cc(-c2nc(-c3cccc(Cl)c3)cs2)n(C)c1C` [SN00795169], the “Average % Inhibition 24h” value stood at 21.9%, the “% Inhibition n=1 24h” value was found to be 31.8%, the “% Inhibition n=2 24h” value came to 12.0% and the “Average % Inhibition 48h” value was found to be 32.8%. The “% Inhibition n=1 48h” value is 47.2% and the “% Inhibition n=2 48h” value came out at 18.5%.

For the compound `Cc1csc(-c2cc(S(=O)(=O)N3c4ccccc4CC3C)c(C)n2C)n1` (centres unmarked) [SN00795179], the “Average % Inhibition 24h” value stood at 22.6%, the “% Inhibition n=1 24h” value is reported as 34.1%, the “% Inhibition n=2 24h” value worked out at 11.1% and the “Average % Inhibition 48h” value was determined as 63.7%. In addition, the “% Inhibition n=1 48h” value is on record as 71.5% and the “% Inhibition n=2 48h” value is given as 55.8%.

Regarding `Cc1ccc2oc(-c3noc(C(=O)NCC4CCCO4)n3)c(C)c2c1` (centres unmarked) [SN00795207], the “% Inhibition n=1 48h” value is 0.0%.

For the compound `COc1ccc2oc(-c3noc(C(=O)NCCN4CCCCCC4)n3)c(C)c2c1` [SN00795214], the “Average % Inhibition 24h” value was determined as 11.6%, the “% Inhibition n=1 24h” value is given as 16.8%, the “% Inhibition n=2 24h” value was found to be 6.3% and the “Average % Inhibition 48h” value is 56.6%. Besides, the “% Inhibition n=1 48h” value was 52.1% and the “% Inhibition n=2 48h” value is 61.1%.

Consider `Cc1ccc(S(=O)(=O)NC2CCN(C(=O)Cc3ccc(Br)cc3)CC2)cc1` [SN00795227], for which the “% Inhibition n=1 48h” value stood at 3.1%.

As to `O=C(c1ccco1)N1CCC(NS(=O)(=O)c2ccc(Cl)cc2)CC1` [SN00795232], the “% Inhibition n=1 48h” value is given as 0.0%.

Take `Cc1cccc(-c2nc(-c3ccc(NS(C)(=O)=O)cc3)no2)c1` [SN00795250]: the “% Inhibition n=1 48h” value is recorded as 9.2%.

Take `COc1ccc(-c2c(C(=O)Nc3cccc(Cl)c3)nn3c(C)cc(=O)[nH]c23)cc1` [SN00795279]: the “% Inhibition n=1 48h” value was determined as 7.0%.

As for `Cc1cccc(-c2nc3sc(N4CCN(C(=O)NC(C)C)CC4)nn3c2NC(C)(C)C)c1` [SN00795313], the “% Inhibition n=1 48h” value is given as 0.0%.

As to `Cc1ccccc1C(=O)Nc1cnc(N2CCNCC2)c(C(=O)N(C)Cc2ccccc2)c1` [SN00795318], the “% Inhibition n=1 48h” value was found to be 15.2%.

For `Cc1cccc(C(=O)Nc2cnc(N3CCNCC3)c(C(=O)N(CC(C)C)CC(C)C)c2)c1` [SN00795320], the “% Inhibition n=1 48h” value was 14.5%.

In the case of `COCCNc1c(-c2ccc(O)cc2)nc2sc3cc(C)ccc3n12` [SN00795351], the “% Inhibition n=1 48h” value was 0.0%.

Consider `CCOc1ccc(-c2nc3sc4cc(C)ccc4n3c2NCCOC)cc1` [SN00795352], for which the “% Inhibition n=1 48h” value worked out at 0.0%.

Regarding `Cc1ccc(S(=O)(=O)N2CCN(C)c3ccccc32)cc1` [SN00795395], the “% Inhibition n=1 48h” value is given as 8.6%.

With `Cc1cccc(NC(=O)Nc2cc(F)c3[nH]c(=O)ccc3c2)c1C` [SN00795412], the “% Inhibition n=1 48h” value is listed as 0.0%.

Take `CCOC(=O)CC(NC(=O)Nc1cc(F)c2[nH]c(=O)ccc2c1)c1ccccc1` (centres unmarked) [SN00795424]: the “% Inhibition n=1 48h” value amounted to 4.9%.

Take `Cc1ccc(C)c(S(=O)(=O)Nc2ccc3nnc(-c4ccccc4)n3n2)c1` [SN00795461]: the “% Inhibition n=1 48h” value worked out at 0.0%.

For the compound `O=C(NC1CC1)c1cnn2c(-c3ccccn3)ccnc12` [SN00795482], the “% Inhibition n=1 48h” value is 0.0%.

Regarding `Cc1nc2c(c(=O)n1CC(=O)Nc1cccc(F)c1)CCN(Cc1ccccc1)C2` [SN00795483], the “% Inhibition n=1 48h” value came to 0.0%.

Regarding `CCOC(=O)N1CCc2c(nc(-c3ccc(C)cc3)n(CC(=O)Nc3ccc(Cl)cc3)c2=O)C1` [SN00795497], the “% Inhibition n=1 48h” value was 41.5%.

On to `CNC(=O)Nc1ccc(C2(C(=O)Nc3ccc(F)c(C)c3)CCC2)cc1` [SN00795530], for which the “% Inhibition n=1 48h” value was found to be 0.0%.

For `O=C(CCC(=O)N1CCCN(c2nc3cccnc3s2)CC1)NCCc1c[nH]c2ccccc12` [SN00795593], the “% Inhibition n=1 48h” value was determined as 0.0%.

On to `CC1CCN(CCCNC(=O)c2ccc(-c3nc(-c4ccccc4)no3)cc2)CC1` [SN00795676], for which the “% Inhibition n=1 48h” value worked out at 23.6%.

With `O=C(c1cccc(-c2nc(-c3ccc(F)cc3)no2)c1)N1CCN(c2ccccc2)CC1` [SN00795713], the “% Inhibition n=1 48h” value is on record as 0.9%.

Consider `CC(C)(C)Nc1c(-c2ccc(F)cc2)nc2sc(N3CCN(Cc4ccccn4)CC3)nn12` [SN00795823], for which the “% Inhibition n=1 48h” value is given as 32.2%.

On to `COc1ccc(C)cc1NC(=O)Nc1c(-c2ccncc2)[nH]c2c(Cl)cccc12` [SN00795853], for which the “% Inhibition n=1 48h” value is on record as 0.0%.

Turning to `CC1(C(=O)NCc2cccc(F)c2)CCCN(C(=O)Cc2cccs2)C1` (centres unmarked) [SN00795886], the “% Inhibition n=1 48h” value is reported as 29.2%.

Turning to `COc1ccc(S(=O)(=O)N2CCCC(C)(C(=O)NCc3ccc(F)cc3)C2)cc1` (centres unmarked) [SN00795932], the “% Inhibition n=1 48h” value amounted to 8.4%.

As to `CCCC(=O)Nc1cc(F)c2nc(N3CCCCC3)ccc2c1` [SN00795955], the “% Inhibition n=1 48h” value is 0.0%.

With `O=S(=O)(Cc1ccccc1)Nc1cccc(-c2nnc(Cc3ccc4c(c3)OCO4)o2)c1` [SN00795993], the “Average % Inhibition 24h” value was found to be 17.2%, the “% Inhibition n=1 24h” value came out at 34.4%, the “% Inhibition n=2 24h” value worked out at 0.0% and the “Average % Inhibition 48h” value is listed as 46.9%. For the same compound, the “% Inhibition n=1 48h” value is given as 80.2% and the “% Inhibition n=2 48h” value is listed as 13.6%.

Take `COc1cccc(-n2ccn3cc(-c4ccc(OC)c(OC)c4)nc3c2=O)c1` [SN00796018]: the “% Inhibition n=1 48h” value amounted to 36.9%.

Turning to `Cc1ccc(S(=O)(=O)N2CCC3(CC2)NCCN=C3NC2CCCCCC2)c(C)c1` [SN00796055], the “% Inhibition n=1 48h” value came out at 0.0%.

As to `CCCNC(=O)N1CCN(Cc2nc3cccnc3n2-c2ccc(CC)cc2)CC1` [SN00796091], the “% Inhibition n=1 48h” value came to 0.0%.

Turning to `Cc1cccc(-n2c(CN3CCN(C(=O)NCC4CCCO4)CC3)nc3cccnc32)c1` (centres unmarked) [SN00796109], the “% Inhibition n=1 48h” value is recorded as 0.7%.

In the case of `COc1ccc(-n2c(CN3CCN(S(=O)(=O)c4cc(C)ccc4C)CC3)nc3cccnc32)cc1` [SN00796116], the “% Inhibition n=1 48h” value was determined as 13.7%.

`CCc1ccc(-n2c(CN3CCN(S(C)(=O)=O)CC3)nc3cccnc32)cc1` [SN00796120]: the “% Inhibition n=1 48h” value is 7.0%.

Consider `Cn1cc2c(n1)c(=O)n(Cc1ccccc1)c(=O)n2CC(=O)Nc1cccc(F)c1` [SN00796169], for which the “Average % Inhibition 24h” value worked out at 30.6%, the “% Inhibition n=1 24h” value was 37.8%, the “% Inhibition n=2 24h” value turned out to be 23.4% and the “Average % Inhibition 48h” value is on record as 62.8%. In addition, the “% Inhibition n=1 48h” value was 46.9% and the “% Inhibition n=2 48h” value stood at 78.6%.

As for `COc1ccccc1-c1nc(C2CCN(C(=O)COc3ccccc3)CC2)no1` [SN00796215], the “% Inhibition n=1 48h” value was determined as 15.9%.

Regarding `O=C(Cc1csc2nc(-c3ccccc3)cn12)NCCc1cccs1` [SN00796222], the “% Inhibition n=1 48h” value turned out to be 0.0%.

In the case of `Cc1ccc(-n2nc(C)c3sc(N4CCCC(C(=O)NCc5ccc6c(c5)OCO6)C4)nc32)cc1` (centres unmarked) [SN00796247], the “% Inhibition n=1 48h” value is given as 0.0%.

With `Cc1ccc(-n2nc(C)c3sc(N4CCCC(C(=O)NCC5CCCO5)C4)nc32)cc1` (centres unmarked) [SN00796250], the “% Inhibition n=1 48h” value is listed as 2.9%.

Regarding `Cc1ccc(NC(=O)Nc2ccc3c(c2)CCN3S(=O)(=O)c2ccccc2)cc1` [SN00796277], the “% Inhibition n=1 48h” value is reported as 10.0%.

For `Cc1c(F)cccc1NC(=O)Nc1ccc2c(c1)CCN2S(C)(=O)=O` [SN00796291], the “% Inhibition n=1 48h” value is recorded as 21.1%.

Regarding `Cc1sc2cc(-c3ccccc3)oc2c1C(=O)NCc1ccccc1` [SN00796296], the “% Inhibition n=1 48h” value was determined as 20.2%.

For the compound `COc1ccc(CNC(=O)c2c(C)sc3cc(-c4ccccc4)oc23)cc1` [SN00796298], the “% Inhibition n=1 48h” value turned out to be 29.4%.

These data come from paper PMC9775191, “A Subset Screen of the Compounds Australia Scaffold Library Identifies 7-Acylaminodibenzoxazepinones as Potent and Selective Hits for Anti-Giardia Drug Discovery” (Biomedicines, 2022).
